According to US9815842B2, “Pyrazolo pyrimidine derivatives and their use as MALT1 inhibitors” (Novartis AG, priority 2014, dated 2017):
Read-outs that look alike come from different tables or passages of the source.

Experiments:
[1] = target: T1, cIAP2-MALT1 fusion protein (Homo sapiens, UniProt Q9UDY8); conditions: read-out: NFkappaB reporter gene assay IC50; HEK293 stably expressing cIAP2-MALT1, luciferase, 24 h compound incubation
Procedure: (§1) For the measurement of compound inhibition, 0.25 μl of test compound were mixed with 12.5 μl of enzyme in wells of the 384-well plates, and incubated for 60 minutes at room temperature (22° C.). After that, 12.5 μl of substrate was added, and the enzymatic reaction was allowed to proceed for 60 minutes at room temperature (22° C.). […] The DMSO content was between 0.9 and 1% (v/v). […] The IC50 value was calculated from the plot of percentage inhibition versus inhibitor concentration using non-linear regression analysis software (Origin, OriginLab Corporation, USA). The data were fitted using a 4 Parameter Logistic Model, characterized by the following equation: y=A2+(A1−A2)/(1+(x/IC50)^p) where y is the %-inhibition at the inhibitor concentration, x. A1 is the lowest inhibition value, and A2 the maximum inhibition value.

[2] = target: C-domain of MALT1 (amino acids 329-824) (Homo sapiens (Human), UniProt Q9UDY8); assay: MALT1 biochemical assay (fluorescence lifetime enzyme activity assay); conditions: 60 min pre-incubation, 2.5 nM enzyme, 1 μM peptide substrate
Human IL2 promoter = Human IL2 promoter reporter gene assay (RGA) in Jurkat cells; assay type: cell-based; conditions: Jurkat clone K22 290_H23, anti-CD28 mAb + PMA stimulation 5.5 h
Method in brief: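 Transfected Jurkat clone K22 290_H23 cells were pre-incubated with compounds 30 min at 37 °C, then stimulated 5.5 h with anti-CD28 mAb (15E8, 3 μg/ml) plus PMA (1 μg/ml). IL2-promoter reporter activity was read as BriteLitePlus bioluminescence.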

[3] = target: T1, cIAP2-MALT1 fusion protein; assay: cell-based
Procedure: as §1

T1 sequence (Q9UDY8 2-824 limits assumed): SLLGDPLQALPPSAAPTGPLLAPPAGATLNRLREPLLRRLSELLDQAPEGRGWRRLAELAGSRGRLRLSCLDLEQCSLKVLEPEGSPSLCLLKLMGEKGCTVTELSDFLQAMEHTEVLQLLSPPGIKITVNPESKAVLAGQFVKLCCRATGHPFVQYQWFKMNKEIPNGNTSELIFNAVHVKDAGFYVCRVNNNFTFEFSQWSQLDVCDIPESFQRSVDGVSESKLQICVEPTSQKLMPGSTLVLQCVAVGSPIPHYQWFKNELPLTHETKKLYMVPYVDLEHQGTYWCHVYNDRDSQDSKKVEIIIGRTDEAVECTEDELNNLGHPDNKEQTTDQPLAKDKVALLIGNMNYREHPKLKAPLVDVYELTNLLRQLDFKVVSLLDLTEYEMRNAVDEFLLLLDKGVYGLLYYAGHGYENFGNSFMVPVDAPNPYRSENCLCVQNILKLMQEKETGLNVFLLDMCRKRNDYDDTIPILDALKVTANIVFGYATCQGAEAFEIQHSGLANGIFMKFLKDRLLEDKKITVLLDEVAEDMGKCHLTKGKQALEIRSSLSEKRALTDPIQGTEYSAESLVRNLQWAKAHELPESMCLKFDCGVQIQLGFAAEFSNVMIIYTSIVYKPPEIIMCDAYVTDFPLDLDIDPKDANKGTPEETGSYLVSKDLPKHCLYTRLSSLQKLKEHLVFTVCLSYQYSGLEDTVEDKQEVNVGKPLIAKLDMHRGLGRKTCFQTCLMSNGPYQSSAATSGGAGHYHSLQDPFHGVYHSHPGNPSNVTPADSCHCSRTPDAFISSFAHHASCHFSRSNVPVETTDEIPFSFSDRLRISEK
Sequence of C-domain of MALT1 (amino acids 329-824) (Q9UDY8 329-824): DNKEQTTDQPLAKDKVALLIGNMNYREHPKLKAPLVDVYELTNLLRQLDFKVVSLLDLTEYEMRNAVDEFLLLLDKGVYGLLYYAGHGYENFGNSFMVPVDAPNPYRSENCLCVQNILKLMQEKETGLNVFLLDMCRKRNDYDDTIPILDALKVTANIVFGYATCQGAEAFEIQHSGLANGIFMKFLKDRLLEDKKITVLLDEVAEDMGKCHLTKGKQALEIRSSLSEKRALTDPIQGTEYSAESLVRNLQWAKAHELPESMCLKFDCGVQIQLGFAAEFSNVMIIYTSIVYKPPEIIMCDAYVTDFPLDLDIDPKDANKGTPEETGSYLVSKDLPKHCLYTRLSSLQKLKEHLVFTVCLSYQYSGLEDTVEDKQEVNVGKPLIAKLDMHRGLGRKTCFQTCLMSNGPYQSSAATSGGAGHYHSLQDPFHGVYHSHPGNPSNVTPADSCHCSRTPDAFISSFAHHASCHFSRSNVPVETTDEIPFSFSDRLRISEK

Row | IC50 [1] [nM] | IC50 [2] [nM] | IC50 (Human IL2 promoter) [nM] | IC50 [3] [nM] | SMILES
1 | 408 | 30 | – | – | CC(C)c1c(NC(=O)Nc2cc(Cl)c(-n3nccn3)nc2OC2CCN(C)C2)cnc2cc(Cl)nn12 (centres unmarked) [Example 33, 1-(5-chloro-2-((1-methylpyrrolidin-3-yl)oxy)-6-(2H-1,2,3-triazol-2-yl)pyridin-3-yl)-3-(2-chloro-7-isopropylpyrazolo[1,5-a]pyrimidin-6-yl)urea]
2 | 132 | – | 52 | – | CO[C@@H](C)c1c(NC(=O)Nc2ccnc(C(F)(F)F)c2)cnc2cc(C)nn12 [Example 6, (S)-1-(7-(1-methoxyethyl)-2-methylpyrazolo[1,5-a]pyrimidin-6-yl)-3-(2-(trifluoromethyl)pyridin-4-yl)urea]
3 | 586 | – | – | – | O=C(Nc1cnc(-n2nccn2)c(Cl)c1)Nc1cnc2cc(Cl)nn2c1C1CC12CCOC2 (centres unmarked) [Example 68, 1-(5-chloro-6-(2H-1,2,3-triazol-2-yl)pyridin-3-yl)-3-(2-chloro-7-(5-oxaspiro[2.4]heptan-1-yl)pyrazolo[1,5-a]pyrimidin-6-yl)urea]
4 | 35 | – | – | – | CC1(c2c(NC(=O)Nc3cnc(-n4nccn4)c(Cl)c3)cnc3cc(Cl)nn23)CC1 [Example 16, 1-(5-chloro-6-(2H-1,2,3-triazol-2-yl)pyridin-3-yl)-3-(2-chloro-7-(1-methylcyclopropyl)pyrazolo[1,5-a]pyrimidin-6-yl)urea]
5 | 117 | – | 94 | – | O=C(Nc1cnc(-n2nccn2)c(C(F)(F)F)c1)Nc1cnc2cc(Cl)nn2c1C1CCCO1 (centres unmarked) [Example 54, 1-(6-(2H-1,2,3-triazol-2-yl)-5-(trifluoromethyl)pyridin-3-yl)-3-(2-chloro-7-(tetrahydrofuran-2-yl)pyrazolo[1,5-a]pyrimidin-6-yl)urea]
6 | 687 | – | – | – | CN1CCOC(c2c(NC(=O)Nc3cnc(-n4nccn4)c(Cl)c3)cnc3cc(Cl)nn23)C1 (centres unmarked) [Example 116, 1-(5-chloro-6-(2H-1,2,3-triazol-2-yl)pyridin-3-yl)-3-(2-chloro-7-(4-methylmorpholin-2-yl)pyrazolo[1,5-a]pyrimidin-6-yl)urea]
7 | 354 | – | – | – | O=C(Nc1cnc(-n2nccn2)c(C(F)(F)F)c1)Nc1cnc2cc(Cl)nn2c1-c1ccco1 [Example 63, 1-(6-(2H-1,2,3-triazol-2-yl)-5-(trifluoromethyl)pyridin-3-yl)-3-(2-chloro-7-(furan-2-yl)pyrazolo[1,5-a]pyrimidin-6-yl)urea]
8 | 159 | – | – | – | O=C(Nc1cnc(-n2nccn2)c(Cl)c1)Nc1cnc2cc(Cl)nn2c1C1COCCO1 (centres unmarked) [Example 43, 1-(5-chloro-6-(2H-1,2,3-triazol-2-yl)pyridin-3-yl)-3-(2-chloro-7-(1,4-dioxan-2-yl)pyrazolo[1,5-a]pyrimidin-6-yl)urea]
9 | 44 | – | 109 | – | COc1ncc(NC(=O)Nc2cnc3cc(Cl)nn3c2[C@H](C)OC)cc1Cl [Example 9, (S)-1-(5-chloro-6-methoxypyridin-3-yl)-3-(2-chloro-7-(1-methoxyethyl)pyrazolo[1,5-a]pyrimidin-6-yl)urea]
10 | 417 | – | – | – | COc1ncc(NC(=O)Nc2cnc3cc(Cl)nn3c2C2CCC(C)O2)cc1Cl (centres unmarked) [Example 87, 1-(5-chloro-6-methoxypyridin-3-yl)-3-(2-chloro-7-(5-methyltetrahydrofuran-2-yl)pyrazolo[1,5-a]pyrimidin-6-yl)urea]
11 | 48 | – | 59 | – | CCC(C)c1c(NC(=O)Nc2cnc(-n3nccn3)c(Cl)c2)cnc2cc(Cl)nn12 (centres unmarked) [Example 35, 1-(7-(sec-butyl)-2-chloropyrazolo[1,5-a]pyrimidin-6-yl)-3-(5-chloro-6-(2H-1,2,3-triazol-2-yl)pyridin-3-yl)urea]
12 | 218 | – | – | – | C[C@H](c1c(NC(=O)Nc2cnc(-n3nccn3)c(Cl)c2)cnc2cc(Cl)nn12)N(C)C [Example 121, (R)-1-(5-chloro-6-(2H-1,2,3-triazol-2-yl)pyridin-3-yl)-3-(2-chloro-7-(1-(dimethylamino)ethyl)pyrazolo[1,5-a]pyrimidin-6-yl)urea]
13 | 356 | – | – | – | COCCO[C@@H](C)c1c(NC(=O)Nc2ccnc(C(F)(F)F)c2)cnc2cc(Cl)nn12 [Example 41, (S)-1-(2-chloro-7-(1-(2-methoxyethoxy)ethyl)pyrazolo[1,5-a]pyrimidin-6-yl)-3-(2-(trifluoromethyl)pyridin-4-yl)urea]
14 | 195 | – | – | – | COCC1(c2c(NC(=O)Nc3ccnc(C(F)(F)F)c3)cnc3cc(Cl)nn23)CCC1 [Example 51, 1-(2-chloro-7-(1-(methoxymethyl)cyclobutyl)pyrazolo[1,5-a]pyrimidin-6-yl)-3-(2-(trifluoromethyl)pyridin-4-yl)urea]
15 | – | 5 | 134 | 85 | CC(C)c1c(NC(=O)Nc2cncc(Br)c2)cnc2cc(Cl)nn12 [Example 26, 1-(5-bromopyridin-3-yl)-3-(2-chloro-7-isopropylpyrazolo[1,5-a]pyrimidin-6-yl)urea]
16 | 678 | – | – | – | COc1ncc(NC(=O)Nc2cnc3cc(Cl)nn3c2-c2ccncc2)cc1Cl [Example 69, 1-(5-chloro-6-methoxypyridin-3-yl)-3-(2-chloro-7-(pyridin-4-yl)pyrazolo[1,5-a]pyrimidin-6-yl)urea]
17 | – | 6 | 43 | 112 | COCCO[C@@H](C)c1c(NC(=O)Nc2cnc(OC)c(Cl)c2)cnc2cc(Cl)nn12 [Example 40, (S)-1-(5-chloro-6-methoxypyridin-3-yl)-3-(2-chloro-7-(1-(2-methoxyethoxy)ethyl)pyrazolo[1,5-a]pyrimidin-6-yl)urea]
18 | 43 | – | 17 | – | C[C@@H](c1c(NC(=O)Nc2cnc(-n3nccn3)c(Cl)c2)cnc2cc(Cl)nn12)N(C)C [Example 122, (S)-1-(5-chloro-6-(2H-1,2,3-triazol-2-yl)pyridin-3-yl)-3-(2-chloro-7-(1-(dimethylamino)ethyl)pyrazolo[1,5-a]pyrimidin-6-yl)urea]
19 | 829 | – | – | – | CN1CCOCC1Cc1c(NC(=O)Nc2cnc(-n3nccn3)c(Cl)c2)cnc2cc(Cl)nn12 (centres unmarked) [Example 83, 1-(5-chloro-6-(2h-1,2,3-triazol-2-yl)pyridin-3-yl)-3-(2-chloro-7-((4-methylmorpholin-3-yl)methyl)pyrazolo[1,5-a]pyrimidin-6-yl)urea]
